Publication PMC7865627, “Small Molecule-Based Prodrug Targeting Prostate Specific Membrane Antigen for the Treatment of Prostate Cancer” (Cancers, 2021)
“Also recorded” adds a separate entry of the source. *1 amine or outer side, *2 acyl side, *3 side chain or, on linkers, in order; H or OH if unused. Where a SMILES comes first, the peptide text is derived from it. Bridges are numbered along the chain shown (N, C = ends). Roman numbers before positions name the chains, in order. [ ]: non-standard residue; d: D form. The star is where a group is joined. Hexanoyl(6-succinimido-3yl) = O=C1CC([*:1])C(=O)N1CCCCCC(=O)[*:2]; Dolaproine = CO[C@@H]([C@@H]1CCCN1)[C@@H](C)C(=O)O; Dil = CC[C@H](C)[C@H](NC)[C@@H](CC(=O)O)OC; γGlu = O=C(O)[C@H](CCC(=O)[*:2])N[*:1]; PABC = O=C(OCc1ccc(N[*:1])cc1)[*:2]; X2 = C[C@@H](N*)[C@@H](O)c1ccccc1; X1 = O=C(C1CCC(CN[*:1])CC1)[*:2]; Cit = NC(=O)NCCC[C@H](N)C(=O)O; NMeV = CN[C@H](C(=O)O)C(C)C; CO = O=C([*:1])[*:2]; Ahx = NCCCCCC(=O)O

Assays:
[1] = In vitro cytotoxicity assay (CCK-8), PC3flu; type: cell-based, human; conditions: human, PC3flu cells
Procedure: (§1) Cells (1000/well) were seeded in 96-well culture plates the day before treatment.

[2] = test system: metastatic PC3pip tumor (intracardiac GFP-PC3pip cells); assay: Metastatic PC3pip survival study; type: in vivo, mouse; conditions: 1910 nmol/kg every 4 days, five doses, 90 days, n = 8
Procedure: Male athymic nude mice were injected into the left ventricle of the heart with 1 × 10^5 GFP labeled PC3pip cells to generate bone metastasis. One week later, mice received 1910 nmol/kg of PSMA-1-VcMMAE or PBS every 4 days with a total of five doses and the progression of disease was monitored by GFP imaging. Eight mice were used in each group.

[3] = Stability on incubation in PBS (without cathepsin), HPLC; type: in vitro ADME; conditions: incubation with PBS without cathepsin, triplicate
Procedure: (§2) Cathepsin is a prevalent protease that PSMA internalized ligands will encounter as they enter into late endosomes/lysosomes. To investigate if PSMA-targeted drug conjugates were cleavable by cathepsin B, the two conjugates were incubated with or without cathepsin protease and chromatographed by high performance liquid chromatography (HPLC).
(§3) At different time intervals, 40 μL of the solution was taken out into tubes loaded with 1 μL of 1 mM E64 protease inhibitor. […] Studies were performed in triplicate.

[4] = test system: heterotopic PC3pip tumors; assay: Heterotopic PC3pip tumor survival study; type: in vivo
Procedure: Male athymic nude mice were implanted subcutaneously with 1 × 10^6 of PC3pip cells 100 μL of matrigel. When tumor size reached approximately 100 mm^3 (tumor volume = Length × width^2/2), mice received drugs through tail vein injection every 4 days with a total of five doses. Mice were treated every 4 days with a total of five doses. Animals were weighed and tumor size measured every other day for 90 days. Cures were defined as no tumor present at end of the 90-day study. When tumors became too large or animals were moribund they were euthanized. Five mice were used in each group.

[5] = In vitro cytotoxicity assay (CCK-8), PC3pip; type: cell-based, human; conditions: human; for EC50 at 72 h: PC3pip cells
Procedure: as §1

orthotopic PC3pip tumors = assay: Orthotopic PC3pip survival study; type: in vivo, mouse; conditions: 3860 nmol/kg (so in the source) i.v. every 4 days, five doses, n = 5
Procedure: Surgical orthotopic tumor implantation was performed as previously reported. Tumor growth/size was monitored using Siemens Acuson S2000 (Siemens AG. Munich, Germany) ultrasound scanner. When the tumors were at the appropriate size (5 mm diameter as measured by ultrasound, approximately 2 weeks) animals were given PSMA-1-VcMMAE, or PBS every 4 days with a total of five doses. Tumors were monitored every other day by ultrasound. Each group utilized five mice.

heterotopic C4-2 tumors = assay: Heterotopic C4-2 tumor study; type: in vivo, mouse; conditions: 1910 nmol/kg every 4 days, five doses, 7 animals
From the text: To show versatility of the antitumor activity of PSMA-1-VcMMAE, we also tested it in mice bearing heterotopic C4-2 tumors, which are androgen-independent prostate cancer cells endogenously expressing PSMA. […]
drugs through tail vein inject every 4 days with total of 5 injections as indicated by the red arrows.
[…] Values are mean ± SD of 5 animals. The plots stopped when animals died during the experiments since values are represent as mean ± SD of 5 animals.
(nmol/kg) Tumor Growth (nmol/kg) Therapeutic Index *
*: Therapeutic index is defined by MTD/effective dose.
PC3flu tumors. Treatment were scheduled every 4 days with a total of five doses as indicated by the […]
red arrow. […] For tumor growth curves and body weight curves, values are mean ± SD of 5 animals. The plots stopped when animals died during the experiments since values are represent as mean ± SD of 5 animals. (A) Tumor growth curves of mice treated with 955 nmol/kg of PSMA-1-VcMMAE. (B) Comparison of the potency of PSMA-1-VcMMAE to treat PC3pip (solid line) and PC3flu tumors (dashed line) at the dose of 955 nmol/kg. (☀, PC3pip treated versus PC3pip PBS, p = 0.0005; ★, PC3pip treated versus PC3flu PBS, p = 0.0242; ♣, PC3pip treated versus PC3flu treated, p = 0.0493). (C) Body weight changes of mice treated with 955 nmol/kg of PSMA-1-VcMMAE.
Figure 9. PSMA-1-VcMMAE was effective in heterotopic C4-2 tumor model. […]

human liver cathepsin B = molecular target: T1, human liver cathepsin B (Homo sapiens, UniProt P07858); assay: Enzymatic cleavage by cathepsin B, HPLC analysis; type: in vitro ADME; conditions: activated human liver cathepsin B, 2 μM conjugate, 37 °C, triplicate
T1 construct: purchased Anthens Research and Technology, Anthens, AL, USA (so in the source); host or cells: human liver (tissue-derived enzyme)
Procedure: as §2, §3

[6] = 3820 nmol/kg i.v. every 4 days, five doses, n = 5

For `CC[C@H](C)[C@@H]([C@@H](CC(=O)N1CCC[C@H]1[C@H](OC)[C@@H](C)C(=O)N[C@H](C)[C@@H](O)c1ccccc1)OC)N(C)C(=O)[C@@H](NC(=O)[C@H](C(C)C)N(C)C(=O)OCc1ccc(NC(=O)[C@H](CCCNC(N)=O)NC(=O)[C@@H](NC(=O)CCCCCN2C(=O)CC(SC[C@H](NC(=O)[C@@H](CCC(=O)O)NC(=O)[C@@H](CCC(=O)O)NC(=O)[C@@H](CCC(=O)O)NC(=O)CCCCCNC(=O)C3CCC(CNC(=O)CC[C@H](NC(=O)N[C@@H](CCC(=O)O)C(=O)O)C(=O)O)CC3)C(=O)NCCCCCC(=O)N[C@@H](CCCCN)C(N)=O)C2=O)C(C)C)cc1)C(C)C` (stereo partly shown) [PSMA-1-VcMMAE] (I: {Glu-CO-γGlu}-[X1][Ahx][dE][dE][dE]C[Ahx]K-NH2 / II: V[Cit][PABC][NMeV]V[Dil][Dolaproine]-X2; linker I:6-II:N via Hexanoyl(6-succinimido-3yl)), the EC50 at 72 h ([1]; 72 h, CCK-8, in the presence of 10 μM of PSMA-1, read-out: EC50, cytotoxicity to PC3flu cells + PSMA-1) was 0.261 ± 0.0056 µM, the EC50 at 72 h ([1]; 72 h, CCK-8, in the presence of protease inhibitor E64 (50 μM given for the Cy5.5 conjugates), read-out: EC50, cytotoxicity to PC3flu cells + E64) was 0.385 ± 0.0053 µM and the EC50 at 72 h ([1]; 72 h incubation, CCK-8, mean ± SD, read-out: EC50, cytotoxicity to PC3flu cells) was 0.222 ± 0.0028 µM. The “cures, metastatic PC3pip” value [2] was “six out of eight”, the “cure rate, metastatic PC3pip” value ([2]; started 1 week after cardiac injection) was 75% and the “stability in PBS (in words)” value [3] was “stable”. The “tumor growth (in words), 191 nmol/kg” value ([4]; 191 nmol/kg i.v. every 4 days, five doses, n = 5) was “significant tumor inhibition”, the “cures, 955 nmol/kg” value ([4]; 955 nmol/kg i.v. every 4 days, five doses, n = 5) was 2/5 and the “histology (H&E) of major organs (in words)” value ([4]; 3820 nmol/kg every 4 days, five injections, day 21) was “no noticeable histological changes; also recorded: no histological damage in salivary gland”. The “cure rate, 3820 nmol/kg” value [4, 6] was 60%, the “cures (tumor-free mice at 90 days), 3820 nmol/kg” value [4, 6] was “three out of five” and the “survival over 90-day experimental time, 3820 nmol/kg” value [4, 6] was “all five mice survived”. The therapeutic index ([4]; MTD/effective dose) was 20, the “lowest dose to effectively inhibit tumor growth” value ([4]; i.v. every 4 days, five doses, tumor growth inhibited for 30 days, n = 5) was 382 nmol/kg and the “body weight (in words)” value ([4]; up to 3820 nmol/kg i.v. every 4 days, five doses) was “No body weight loss”. For the same molecule, the selectivity ratio at 72 h ([5]; PC3pip and PC3flu cells, more potent for PC3pip than PC3flu, read-out: selectivity, differential cytotoxicity ratio between PC3pip and PC3flu cells) was 48, the EC50 at 72 h ([5]; 72 h, CCK-8, in the presence of 10 μM of PSMA-1, read-out: EC50, cytotoxicity to PC3pip cells + PSMA-1) was 0.241 ± 0.0086 µM and the EC50 at 72 h ([5]; 72 h, CCK-8, in the presence of protease inhibitor E64 (50 μM given for the Cy5.5 conjugates), read-out: EC50, cytotoxicity to PC3pip cells + E64) was 0.0311 ± 0.00211 µM. For the same molecule, the EC50 at 72 h ([5]; 72 h incubation, CCK-8, mean ± SD, read-out: EC50, cytotoxicity to PC3pip cells) was 0.00464 ± 0.00083 µM, the “tumor free mice, orthotopic PC3pip, 3860 nmol/kg” value (orthotopic PC3pip tumors) was “one” and the “cures, C4-2 tumors” value (heterotopic C4-2 tumors) was 2 / 7. The “cleavage by cathepsin B (in words)” value (human liver cathepsin B) was “release of free MMAE”.
